Measured values published in patent publication US7166744B2, “Retinoid derivatives and methods for producing said compounds and anti-cancer pharmaceutical composition comprising said compounds” (Chebigen Co., Ltd., priority 2001, dated 2007).

What was measured:
Format in all cases: cell-based
[1] = tested on: HeLa cervix cancer cells; test: MTT proliferation assay, HeLa; conditions: 48 hours, uterine cancer
Method: (§1) The effects of test compounds on proliferation of various cancer cells was examined by 3-(4,5-dimethylthiazol-2-yl)-2,5-diphenyltetrazolium bromide (MTT, Sigma) assay in a dose dependent manner. In the MTT assay, colon, liver, cervix, ovary, and breast cancer cell lines were treated with test compounds at various concentrations. Living cancer cells reduce MTT to dark blue MTT formazan that would be measured by absorbance.
(§2) Colon cancer cells, HCT116, DLD-1 and HT29, cervix cancer cells, HeLa and CaSki, ovary cancer cells, SKOV-3, 2774 and OVCAR-3, liver cancer cells, SK-Hep-1, PLCPRF5 and HepG2, and breast cancer cells, ZR75-1 and MDA-MB 231 were seeded at an initial density of 3000 cells per well in 96-well plates. After attachment of cells to the walls of the wells, the medium containing fresh retinoid was treated with various concentrations (0.5 μM, 1 μM, 2.5 μM, 5 μM, 10 μM) for 48 hours. 50 μl of MTT solution (2 mg/ml in PBS) was added to cell culture media. The reaction micture was incubated at 37° C. in a 5% CO2 atmosphere for 4 hours. The supernatant was removed and 150 μl of DMSO was added. The optical density was measured spectrophotometrically at 550 nm. […] For other retinoid derivatives according to the present invention, absorbances were measured by this procedure and IC50 values, concentrations required for 50% growth inhibition, were determined.

[2] = tested on: SKOV-3 ovary cancer cells; test: MTT proliferation assay, SKOV-3; conditions: ovarian cancer
Method: as §1, §2

[3] = tested on: 2774 ovary cancer cells; test: MTT proliferation assay, 2774; conditions: 48 hours, ovarian cancer
Method: as §1, §2

[4] = tested on: HepG2 liver cancer cells; test: MTT proliferation assay, HepG2
Method: as §1, §2

[5] = tested on: ZR75-1 breast cancer cells; test: MTT proliferation assay, ZR75-1
Method: as §1, §2

[6] = molecular target: T1, RARα (Homo sapiens, UniProt P10276); test: CAT reporter assay, RARα; conditions: 1 μM, control = 1.0; for expression level of CAT enzyme, RARα −: column '−'
T1 construct: expressed in transfected cells
T1 sequence (P10276 1-462): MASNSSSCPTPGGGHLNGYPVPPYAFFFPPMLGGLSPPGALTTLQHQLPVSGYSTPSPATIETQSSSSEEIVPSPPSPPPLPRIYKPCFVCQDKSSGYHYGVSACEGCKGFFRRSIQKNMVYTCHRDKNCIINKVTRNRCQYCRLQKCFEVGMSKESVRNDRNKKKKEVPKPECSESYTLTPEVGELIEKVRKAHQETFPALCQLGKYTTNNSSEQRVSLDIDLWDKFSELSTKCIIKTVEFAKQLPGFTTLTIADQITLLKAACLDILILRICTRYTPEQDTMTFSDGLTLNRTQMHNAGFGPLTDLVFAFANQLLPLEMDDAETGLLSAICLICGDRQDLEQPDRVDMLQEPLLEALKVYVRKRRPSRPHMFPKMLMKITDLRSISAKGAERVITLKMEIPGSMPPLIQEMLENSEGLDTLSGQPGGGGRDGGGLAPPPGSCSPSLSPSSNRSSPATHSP
Excerpt: In order to confirm the effect of KCBG60 according to the present invention on retinoid receptor activity, cells were cotransfected with expression vectors of receptor subfamilies and reporter genes. As the reporter gene, chloramphenicol acetyltransferase (CAT) with a transcription control site reactive to respective receptors was used.

[7] = tested on: HCT116 cells; test: In vitro matrigel invasion assay, HCT116; conditions: HCT116, 1 μM, 8 hours, matrigel-coated filter
Method: Meanwhile, to determine the effect of KCBG60 on the invasion potential of HCT116 cells, in vitro assay was performed. […] After cultivation for a predetermined period of time, the number of cells migrating to lower side of the filter was measured to determin the invasion level (FIG. 15).

[8] = tested on: SK-Hep-1 liver cancer cells; test: Trypan blue surviving cell count, SK-HEP-1
Excerpt: Surviving cells, which had not be stained by trypan blue were counted and the results are shown in Table 3 as relative surviving cells (%).

[9] = molecular target: T2, RXRα (Homo sapiens, UniProt P19793); test: CAT reporter assay, RXRα; conditions: 1 μM, control = 1.0, RA = 9-cis RA; for expression level of CAT enzyme, RXRα −: column '−'
T2 construct: expressed in transfected cells
T2 sequence (P19793 1-462): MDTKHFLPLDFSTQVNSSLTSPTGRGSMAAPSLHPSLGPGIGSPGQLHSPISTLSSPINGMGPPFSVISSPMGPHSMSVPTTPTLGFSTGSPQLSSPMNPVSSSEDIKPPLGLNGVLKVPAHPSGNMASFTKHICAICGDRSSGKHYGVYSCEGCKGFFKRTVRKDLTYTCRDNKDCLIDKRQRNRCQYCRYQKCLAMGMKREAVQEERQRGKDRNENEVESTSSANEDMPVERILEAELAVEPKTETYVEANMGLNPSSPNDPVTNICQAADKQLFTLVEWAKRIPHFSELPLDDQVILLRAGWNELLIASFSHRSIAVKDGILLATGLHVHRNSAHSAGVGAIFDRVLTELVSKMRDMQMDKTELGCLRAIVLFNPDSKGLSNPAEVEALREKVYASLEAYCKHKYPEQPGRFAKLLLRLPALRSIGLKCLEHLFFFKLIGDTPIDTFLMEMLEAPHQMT
Excerpt: (§3) As the reporter gene, chloramphenicol acetyltransferase (CAT) with a transcription control site reactive to respective receptors was used.

[10] = molecular target: T3, RXRβ (Homo sapiens, UniProt P28702); test: CAT reporter assay, RXRβ; conditions: 1 μM, control = 1.0, RA = 9-cis RA; for expression level of CAT enzyme, RXRβ −: column '−'
T3 construct: expressed in transfected cells
T3 sequence (P28702 1-533): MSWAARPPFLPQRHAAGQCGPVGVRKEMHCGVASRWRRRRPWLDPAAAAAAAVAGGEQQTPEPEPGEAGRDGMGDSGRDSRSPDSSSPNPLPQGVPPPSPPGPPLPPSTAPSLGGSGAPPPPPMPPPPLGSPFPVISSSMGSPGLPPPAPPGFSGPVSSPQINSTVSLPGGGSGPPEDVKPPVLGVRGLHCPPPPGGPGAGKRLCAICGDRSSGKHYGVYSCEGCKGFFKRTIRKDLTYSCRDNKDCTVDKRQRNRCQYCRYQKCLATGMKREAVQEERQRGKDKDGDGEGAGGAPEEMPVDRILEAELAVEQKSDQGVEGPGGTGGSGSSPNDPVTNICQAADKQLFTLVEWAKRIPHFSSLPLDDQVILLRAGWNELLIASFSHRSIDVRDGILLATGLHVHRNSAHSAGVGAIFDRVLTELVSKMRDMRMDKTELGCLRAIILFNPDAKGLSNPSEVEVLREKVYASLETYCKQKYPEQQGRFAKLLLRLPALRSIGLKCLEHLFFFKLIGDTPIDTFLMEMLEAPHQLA
Excerpt: as §3

`CC1=C(/C=C/C(C)=C/C=C/C(C)=C/C(=O)O)C(C)(C)CCC1` [ATRA, All-trans-retinoic acid, reference compound] was tested, and the IC50 ([1]; Homo sapiens, HeLa) was 5 µM, the IC50 ([2]; Homo sapiens, SK-OV-3, 48 hours) was > 100 µM and the IC50 [3] was > 100 µM. For the same compound, the IC50 ([4]; Homo sapiens, HepG2, 48 hours) was > 500 µM, the IC50 ([5]; Homo sapiens, ZR-75-1, 48 hours) was > 500 µM and the “expression level of CAT enzyme, RARα +” value [6] was 66.7. The “expression level of CAT enzyme, RARα −” value [6] was 17.3 and the “reduction of the number of invaded cells” value [7] was 40%.

Compound `CCCC(=O)Nc1cc(NC(=O)/C=C(C)/C=C/C=C(C)/C=C/C2=C(C)CCCC2(C)C)ccc1O` [KCBG41, (2E,4E,6E,8E)-[3,7-dimethyl-9-(2,6,6-trimethylcyclohex-1-enyl)-nona-2,4,6,8-tetraenoylamino]-(3-butyrylamino-4-hydroxy)phenylamide] has an IC50 [1] of 3 µM, an IC50 ([2]; 48 hours) of 3 µM and an IC50 [3] of 2.5 µM. For the same compound, the IC50 ([4]; 48 hours) was > 100 µM and the IC50 ([5]; 48 hours) was 4.1 µM.

In the case of `CCCC(=O)Oc1ccc(NC(=O)/C=C(C)/C=C/C=C(C)/C=C/C2=C(C)CCCC2(C)C)cc1` [KCBG60], the “relative surviving cells (%)” value ([8]; SK-HEP-1, 0.5 μM) is reported as 90%, the “relative surviving cells (%)” value ([8]; SK-HEP-1, 1 μM) is reported as 75% and the “relative surviving cells (%)” value ([8]; SK-HEP-1, 5 μM) is reported as 48%. For the same compound, the “relative surviving cells (%)” value ([8]; SK-HEP-1, 10 μM) was 10%, the “expression level of CAT enzyme, RARα +” value [6] was 1.1 and the “expression level of CAT enzyme, RARα −” value [6] was 0.7. For the same compound, the “expression level of CAT enzyme, RXRα +” value [9] was 1.3, the “expression level of CAT enzyme, RXRα −” value [9] was 0.9 and the “expression level of CAT enzyme, RXRβ +” value [10] was 1.1. For the same compound, the “expression level of CAT enzyme, RXRβ −” value [10] was 0.5 and the “reduction of the number of invaded cells” value [7] was 50%.

With `CCCC(=O)Oc1cc(O)ccc1NC(=O)/C=C(C)/C=C/C=C(C)/C=C/C1=C(C)CCCC1(C)C` [KCBG10, 2.2-[(2E,4E,6E,8E)-3,7-Dimethyl-9-(2,6,6-trimethylcyclohex-1-enyl)-nona-2,4,6,8-tetraenoylamino]-5-hydroxyphenylbutanoate] the IC50 [1] was 0.5 µM, the IC50 ([2]; 48 hours) was 0.5 µM and the IC50 [3] was 8 µM. For the same compound, the IC50 ([4]; 48 hours) was > 100 µM and the IC50 ([5]; 48 hours) was 2 µM.

For phenyl butylate, the “relative surviving cells (%)” value ([8]; SK-HEP-1, 0.5 μM) was 102%, the “relative surviving cells (%)” value ([8]; SK-HEP-1, 1 μM) was 103% and the “relative surviving cells (%)” value ([8]; SK-HEP-1, 5 μM) was 95%. The “relative surviving cells (%)” value ([8]; SK-HEP-1, 10 μM) was 87%, the “expression level of CAT enzyme, RARα +” value [6] was 0.8 and the “expression level of CAT enzyme, RARα −” value [6] was 0.7. For the same compound, the “expression level of CAT enzyme, RXRα +” value [9] was 1.2, the “expression level of CAT enzyme, RXRα −” value [9] was 1.1 and the “expression level of CAT enzyme, RXRβ +” value [10] was 1.1. The “expression level of CAT enzyme, RXRβ −” value [10] was 0.5 and the “reduction of the number of invaded cells” value [7] was “did not show invasion inhibiting effect”.

`CC1=C(/C=C/C(C)=C/C=C/C(C)=C/C(=O)Nc2ccc(O)cc2)C(C)(C)CCC1` [HPR, (2E,4E,6E,8E)-[3,7-dimethyl-9-(2,6,6-trimethylcyclohex-1-enyl)-nona-2,4,6,8-tetraenoylamino]-4-hydroxyphenylamide] gave an IC50 [1] of 3 µM, an IC50 ([2]; 48 hours) of 2 µM and an IC50 [3] of 30 µM. The IC50 ([4]; 48 hours) was > 100 µM, the IC50 ([5]; 48 hours) was 15 µM and the “relative surviving cells (%)” value ([8]; SK-HEP-1, 0.5 μM) was 90%. The “relative surviving cells (%)” value ([8]; SK-HEP-1, 1 μM) was 73%, the “relative surviving cells (%)” value ([8]; SK-HEP-1, 5 μM) was 45% and the “relative surviving cells (%)” value ([8]; SK-HEP-1, 10 μM) was 15%. For the same compound, the “expression level of CAT enzyme, RARα +” value [6] was 30.4, the “expression level of CAT enzyme, RARα −” value [6] was 9.9 and the “expression level of CAT enzyme, RXRα +” value [9] was 1.5. For the same compound, the “expression level of CAT enzyme, RXRα −” value [9] was 1.0, the “expression level of CAT enzyme, RXRβ +” value [10] was 1.4 and the “expression level of CAT enzyme, RXRβ −” value [10] was 0.6.
